Where no end group is shown, it is not given here.
What was measured:
[1] = tested on: sexually mature, Sprague-Dawley female rats; experiment: Sexually mature Sprague-Dawley female rats, single intravenous treatment, necropsy 48 or 96 hours after treatment, H&E and PAS stain (Examples 15-22); format: in vivo, rat; conditions: for appearance of the pituitary glands: 1 mg i.v.
Experimental: Eight sexually mature, Sprague-Dawley female rats were randomly assigned to one of eight treatments. Each group of rats received a single treatment intravenously, as described below. Rats were sacrificed and necropsied either 48 or 96 hours after treatment. The ovaries, uterus, pancreas, liver, spleen, lungs, heart, thyroid, and adrenal glands were fixed in 10% buffered formalin; sectioned; and stained with H&E (hematoxylin and eosin) stain; except that the pituitary glands were stained with PAS (periodic acid-Schiff) stain with no counter-stain. The treatments were selected so that each animal received an equimolar amount of the compound with which it was treated.

[2] = tested on: gonadotropes in the pituitary and neurons in the brain bearing GnRH receptors; experiment: Rats, treatments generally similar to treatments 9-14, immunohistochemical staining (Example 23); format: in vivo, rat; conditions: fusion peptide administered
Experimental: Subsequent experiments were conducted on rats using treatments generally similar to treatments 9-14 above. […] The selective killing of these cells was seen after the GnRH-hecate fusion peptide was administered; and after the administration of GnRH alone, followed 10 minutes later by the administration of hecate alone.

[3] = tested on: sexually immature female rats; experiment: Thirty-three-day-old sexually immature female rats, intravenous, sacrificed 14 days after treatment, histology and immunocytochemistry (Examples 35-38); format: in vivo, rat; conditions: Treatment 37: 0.5 mg i.v.
Experimental: Another set of experiments was performed to study the in vivo effects of the GnRH-hecate conjugate on female rats and rabbits. The ovaries, uterus, oviducts, adrenals, spleen, thyroids, pancreas, liver, lungs, and heart were processed for histological analysis. […] The immunocytochemical staining procedures we used followed generally the procedures of M. Rahmanian et al., “Histological and immunocytochemical characterization of pituitary cell types in ponies,” Proc. 13th Soc. Equine Nutrition & Phys. Symp., pp. 348-349 (1993); M. Rahmanian et al., “Immunocytochemical localization of luteinizing hormone and follicle-stimulating hormone in the equine pituitary,” J. Anim. Sci., vol. 76, pp. 839-846 (1998); M. Rahmanian et al., “Immunocytochemical localization of prolactin and growth hormone in the equine pituitary,” Animal Sci., vol. 75, pp. 3010-3018 (1997); and P. Melrose et al., “Comparative topography of the immunoreactive alpha-melanocyte-stimulating hormone neuronal system in the brains of horses and rats,” Brain Beh. & Evol., vol. 32, pp. 226-235 (1988).
Brains were serially sectioned on a Vibrotome from the level of the diagonal band of Broca to the mammillary body. Alternate sections were consecutively divided into four to five dishes, and sections in alternate dishes were stained with cresyl violet, or were stained immunocytochemically for GnRH or the GnRH precursor, VP, OXY, or tyrosine hydroxylase (the rate-limiting enzyme in catecholamine synthesis). In addition to the staining procedures cited above, we also used the immunocytochemical staining procedures of P. Melrose et al., “Distribution and morphology of immunoreactive gonadotropin-releasing hormone (GnRH) neurons in the basal forebrain of ponies,” J. Comp. Neurol. vol. 339, pp. 269-287 (1994); and P. Melrose et al., “Topography of oxytocin and vasopressin neurons in the forebrain of Equus caballus: Further support of proposed evolutionary relationships for proopiomelanocortin, oxytocin and vasopressin neurons,” Brain, Beh. & Evol., vol. 33, pp. 193-204 (1989).
Thirty-three-day-old, sexually immature female rats were given intravenous administrations as follow:
Animals were sacrificed 14 days after treatment.

[4] = tested on: sexually immature female rats; experiment: Sexually immature (33 day old) female rats, intravenous GnRH-hecate dose series, sacrificed at 24 hours or 14 days (Examples 39-43); format: in vivo, rat; conditions: for abnormal GnRH-receptor-containing neurons: sacrificed fourteen days after treatment
Experimental: Sexually immature (33 day old) female rats (randomly allocated into groups of three) were injected intravenously with saline or GnRH-hecate in saline as follows:
Animals were sacrificed at 24 hours or at 14 days after treatment. […] In the rats sacrificed fourteen days after treatment, 66% and 87% of the GnRH-receptor-containing neurons were abnormal in the rats that had received 1.0 and 1.5 mg of GnRH-hecate, respectively. Axonal degeneration in the 1.5 mg GnRH-hecate group was accompanied by over 90% reduction in median eminence staining for GnRH.

[5] = tested on: GnRH receptor-bearing cells in the brain (neurons) and in the pituitary (gonadotrophic cells); experiment: Summary of the in vivo studies: selectivity of the GnRH-hecate conjugate; parameters: species or system rats and rabbits
[6] = 0.1 to 1.5 mg i.v., 24 hours or 14 days

## GnRH-hecate: fusion peptide of modified GnRH bonded directly to the lytic peptide hecate, SEQ. ID NO. 3 (QHWSYGLRPGFALALKALKKALKKLKKALKKAL; ends and bridges not checked; also: GnRH part modified, modification not given here)
[1]; sacrificed 48 hours after injection
  appearance of the pituitary glands: slightly enlarged, hyperemic, and edematous
[1]; sacrificed 96 hours after injection
  appearance of the pituitary glands: slightly hyperemic, but of expected size
[1]; 1 mg in 100 μL saline (2.7 mM) i.v., sacrificed 48 or 96 hours after injection
  gross lesions in the organs: No gross lesions were noted in the organs of any of the four animals, other than the pituitary
[2]
  LH and FSH secretion by pituitary cells: no longer secreted either LH or FSH
[2]; treatments generally similar to treatments 9-14
  selective cell killing seen with immunohistochemical staining: selectively killed (1) gonadotropes in the pituitary, and (2) neurons in the brain bearing GnRH receptors
[3]; 33-day-old female rat, 14 days after treatment
  reduction of pituitary weights compared to the two GnRH control groups: 13%
[3]; 14 days
  adrenocorticotropic hormone levels in the pars distalis: reduced
  cell bodies of GnRH-stained neurons in hypophysiotropic areas of the brain: frequently deformed
  histology of the C1 and C3 fields of the hippocampus: histological damage to cells
  number of alpha-MSH-stained cells in the pars distalis: increased
  pathological changes in any other tissues: No pathological changes
  reduction of the numbers of bLH-specific gonadotropes compared to the two GnRH control groups: 92%
[3]; 14 days, may have been caused by a precipitate
  VP staining in the paraventricular nucleus: increased staining of parvicellular VP neurons in the paraventricular nucleus
[4]; 1.0 mg i.v.
  abnormal GnRH-receptor-containing neurons: 66%
[4]; 1.5 mg i.v.
  reduction in median eminence staining for GnRH: over 90%
  abnormal GnRH-receptor-containing neurons: 87%
[4]; [6]
  VP staining in the CNS: not altered
  precipitate in the brain: no precipitate was found in the brain
[4]; treatments with higher levels of GnRH-hecate
  morphology of GnRH-receptor-containing neurons: a large number of GnRH-receptor-containing neurons having abnormal morphologies
[5]
  changes in other endocrine and non-endocrine tissues (except for the ovary): No changes
  changes in pituitary cells that lacked GnRH receptors: No changes
  cytotoxic changes in neurons that lacked GnRH receptors: No cytotoxic changes
  effect on GnRH receptor-bearing cells: selectively damaged GnRH receptor-bearing cells in the brain (neurons) and in the pituitary (gonadotrophic cells)
